Here are results for 4 molecules from US12168055B2, “Sonosensitization” (priority 2019, dated 2024).

One data set has as its system mammary tumors. Particulars: porfimer sodium 2.5 mg/kg or higher i.v. 24 h before ultrasound 1.92 MHz, 15 min, 3 W/cm^2 or higher; cited from earlier work.
A further data set has as its system normal brain tissue. Particulars: cited from earlier work.
The next data set relates to C6 glioma cells. The settings on record: 5-ALA 60 mg/kg or Radachlorin 40 mg/kg + ultrasound 1.0 MHz, 2.65 W/cm^2, 20 min; vs control groups; cited from earlier work.
The test system of a further data set is C6 rat glioma cells. Particulars: 5-ALA 100 mg/kg orally 3 h before ultrasound 1.04 MHz, 10 W/cm^2, 5 min; vs 5-ALA or ultrasound alone; cited from earlier work.
In data set [1] the test system is U87 and U251 glioma cells, and U251^Oct-3/4 glioma stem-like cells. Particulars: 5-ALA 1 mM + ultrasound 3 MHz, 2 W/cm^2, 20% duty cycle, 3 min; cited from earlier work.
A further data set deals with normal control cells. Particulars: 5-ALA 1 mM + ultrasound 3 MHz, 2 W/cm^2, 20% duty cycle, 3 min; cited from earlier work.
A further data set relates to SAS cells. Particulars: cited from earlier work; for cell viability: about 2 W/cm^2, 2 min.
Data set [2] has as its system rat osteosarcoma UMR-106 cells. The settings on record: 5-ALA 250 mg/kg i.v. 8 h before ultrasound 1.0 MHz, 2.5 W/cm^2, 8 min daily for 10 days; vs all other groups; cited from earlier work.
The test system of data set [3] is human U87 glioma cells or U251^Oct-3/4 glioma stem-like cells. The settings on record: 5-ALA 100 mg/kg + ultrasound 2.2 MHz, 0.5 or 2.0 W/cm^2, 3 min, weekly for 3 weeks; cited from earlier work.
Data set [4] relates to human THP-1 monocytes (induced to become macrophages and foam cells). Particulars: berberine 30 μg/mL, ultrasound 1.0 MHz, 0.4 W/cm^2, 10 min; cited from earlier work.

Where two headings read alike, the source gives them in different places.

Protocol for C6 glioma tumor cells: Male Wistar rats received injections of 4×10^5 C6 glioma tumor cells by injection into the right cortex of the brain. On day 7 after injection, rats were administered 5-aminolevulinic acid (20 mg/kg or 0 mg/kg, Levulan®, DUSA Pharmaceuticals, Wilmington, MA) orally, three hours prior to treatment.
Rats were anesthetized and set inside an MRI-guided focused ultrasound system (“FUS”, RK300, FUS Instruments, Toronto, Canada), having a 25 mm diameter spherically curved transducer (resonant frequency f0=1.06 MHz, focal number=0.8). The FUS, with rat, was then inserted into a 7 Telsa MRI system (Brucker BioSpec 70/30 USR, Bruker Ltd., Milton, Ontario, Canada). The MRI was used to precisely aim the FUS device at the brain tumor. Rats were then sonicated at one of four spatial peak temporal average intensities (ISPTA) (6.9 W/cm^2, 13.8 W/cm^2, 27.6 W/cm^2, or 55.2 W/cm^2) for 20 minutes. One group (N=6) was cyclicly sonicated at 27.6 W/cm^2 for 20 minutes, divided into 16 sonication periods of 85 seconds, separated by rest periods of 60 seconds (the multiple point, or “MP” group). In the MP group, 16 individual points within the tumor were sonicated. Control groups (N=5 each) received 5-ALA without FUS treatment, FUS treatment without 5-ALA, or neither 5-ALA nor FUS. Tumor temperature was monitored during sonication using magnetic resonance thermometry. Normalized tumor volume was measured by MRI on days 7, 14, 21, 28, and 35 following injection.

For the molecule porfimer sodium, the tumor growth result in the data set with mammary tumors is “effectively inhibited tumor growth”.
Take `O=C([O-])c1c(Cl)c(Cl)c(Cl)c(Cl)c1-c1c2cc(I)c(=O)c(I)c-2oc2c(I)c([O-])c(I)cc12.[Na+].[Na+]` [Rose Bengal]: the rats displaying lesions in the data set on normal brain tissue (Rose Bengal 10 mg/kg, ultrasound 110 W/cm^2, 3 min) was 5/5; in the data set on normal brain tissue (Rose Bengal 10 mg/kg, ultrasound 110 W/cm^2, 5 min), 6/7; with normal brain tissue (Rose Bengal 50 mg/kg, ultrasound 110 W/cm^2, 3 min), 5/5; in the data set on normal brain tissue (Rose Bengal 50 mg/kg, ultrasound 110 W/cm^2, 5 min), 6/6. The “lesions in normal brain tissue” value in the data set with normal brain tissue (ultrasound 25 W/cm^2, with or without Rose Bengal) is “no lesions”.
Turning to `NCC(=O)CCC(=O)O` [5-ALA, 5-aminolevulinic acid], the tumor size result with C6 glioma cells is “significantly smaller in size”; in the data set on C6 rat glioma cells it was “significantly smaller tumors”. Moreover, the “cytotoxicity to tumor cells” value in data set [1] is “substantially cytotoxic to all tumor cells tested”. Besides, the “survival, multiple point (MP) group” value with C6 glioma tumor cells (5-ALA 20 mg/kg + FUS 27.6 W/cm^2, 16 points, 16 periods of 85 s with 60 s rest) is “greatest increase in survival”. Also, the survival result with C6 glioma tumor cells (5-ALA 20 mg/kg orally 3 h before FUS (1.06 MHz, 20 min), all experimental groups) is “improved survival”. In the data set with C6 glioma tumor cells (5-ALA 20 mg/kg orally 3 h before FUS (1.06 MHz, 20 min), all experimental groups vs control animals), the tumor growth result is given as “inhibited tumor growth”. Moreover, the tissue damage entry with C6 glioma tumor cells (5-ALA 20 mg/kg, sonication at 55.2 W/cm^2) is “suffered tissue damage”. In the data set on C6 glioma tumor cells (5-ALA only group (20 mg/kg orally), no FUS), the normalized tumor volume was 24+6 mm^3. Moreover, in the data set with C6 glioma tumor cells (MP group: 5-ALA 20 mg/kg + FUS 27.6 W/cm^2 at 16 points), the “subjects surviving past 60 days” value is reported as 50%. In the data set on normal control cells, the “cytotoxicity to normal control cells” value is recorded as “not to normal control cells”. In the data set with SAS cells (10 μg/mL 5-ALA added to ultrasound, vs ultrasound alone), the “SAS cell apoptosis, intracellular reactive oxygen species, and lipid peroxidation” value was “significantly increased these effects”. The cell viability in the data set on SAS cells (5-ALA 1 μg/mL 4 h before ultrasound 1.05 MHz) was 88%; in the data set on SAS cells (5-ALA 10 μg/mL 4 h before ultrasound 1.05 MHz), 75%; in the data set on SAS cells (5-ALA 50 μg/mL 4 h before ultrasound 1.05 MHz), 62%. For the same molecule, the tumor volumes entry in data set [2] was “significantly smaller than all other groups”. In addition, the “survival of treated mice” value in data set [3] is listed as “significantly improved the survival”.
Consider `COc1ccc2cc3[n+](cc2c1OC)CCc1cc2c(cc1-3)OCO2` [berberine], for which, in [4], the autophagy in macrophages entry is “induced autophagy in macrophages” and the cholesterol efflux result is “increased cholesterol efflux”.

By cell viability is commonly meant the share of living cells, or the viability signal relative to a control.
